{"source": "patent US20150045313A1", "about": "“Ectoparasiticidal Methods and Formulations” (Eli Lilly and Company, priority 2009, published 2015)", "test_system": "fleas (C. felis)", "assay": "Third evaluation, speed-of-kill of topical spot-on against fleas on cats", "type": "in vivo", "design": "flea reduction 12 hours after additional infestation: concentration or dose not given beside the values", "experimental": "Third evaluation of spinetoram as a topical spot-on for control of cat flea infestations. A study was conducted to evaluate the speed-of-kill efficacy of spinetoram applied topically for the control of fleas (C. felis) on cats. Thirty-six cats were evenly allocated into six groups. One group was a no treatment and no vehicle group. On study days −8 and −1, each cat was infested with approximately 100 newly emerged, unfed adult fleas (C. felis), with an approximate split of 50/50 male to female flea. The topical solution used was spinetoram, on a pure basis, 39.6% w/w (210 mg spinetoram/0.5 ml dose), with benzyl alcohol and butylated hydroxytoluene. The treated groups were dosed once on Study Day 0 by application at the base of the skull at skin level, and flea counts were conducted as follows: […]"}
{"substance": "Spinetoram", "values": [{"measurement": "flea reduction 1 hour after additional infestation", "setting": "28 days after treatment", "value": 80.7, "unit": "%"}, {"measurement": "flea reduction 4 hours after additional infestation", "setting": "28 days after treatment", "value": 91.6, "unit": "%"}, {"measurement": "flea reduction 8 hours after additional infestation", "setting": "28 days after treatment", "value": 98.5, "unit": "%"}, {"measurement": "flea reduction 12 hours after additional infestation", "setting": "28 days after treatment", "value": 100, "unit": "%"}, {"measurement": "flea reduction 24 hours after additional infestation", "setting": "28 days after treatment", "value": 100, "unit": "%"}, {"measurement": "reduction in live flea numbers, four hours after treatment", "setting": "cats, 210 mg/0.5 ml dose, 4 hours", "value": 63.2, "unit": "%"}, {"measurement": "efficacy level, eight hours post-dosing", "setting": "cats, 210 mg/0.5 ml dose, 8 hours", "value": 94.6, "unit": "%"}, {"measurement": "efficacy, twelve hour time point", "setting": "cats, 210 mg/0.5 ml dose, 12 hours", "value": 98.6, "unit": "%"}, {"measurement": "efficacy, twenty-four hour time point", "setting": "cats, 210 mg/0.5 ml dose, 24 hours", "value": 100, "unit": "%"}, {"measurement": "flea reduction 4 hours after additional infestation", "setting": "seven days after treatment", "value": 100, "unit": "%"}, {"measurement": "flea reduction 8 hours after additional infestation", "setting": "seven days after treatment", "value": 100, "unit": "%"}, {"measurement": "flea reduction 12 hours after additional infestation", "setting": "seven days after treatment", "value": 100, "unit": "%"}, {"measurement": "flea reduction 24 hours after additional infestation", "setting": "seven days after treatment", "value": 100, "unit": "%"}, {"measurement": "fleas killed within one hour of an additional infestation", "setting": "seven days after treatment, 1 hour", "value": "over 90%"}]}
